Source: article PMC12256496, “An advancement in developmental and reproductive toxicity (DART) risk assessment: evaluation of a bioactivity and exposure-based NAM toolbox” (Frontiers in Toxicology, 2025)
Like-named read-outs stand apart in the source and are kept apart here. Peptide text beside a SMILES is read from it.

How the values were obtained:
[1] = cited from earlier work
[2] = test system: developmental or reproductive toxicity in animal or human; conditions: cited from earlier work
[3] = cited from earlier work; remark: listed apart in the source
[4] = renal clearance, Fup*GFR (PBK parameter); conditions: method Fup*GFR
[5] = test system: human developmental and reproductive toxicity; conditions: ref Supplementary Data Sheet 1, cited from earlier work
[6] = test system: thyroid peroxidase (TPO); experiment: IPP: thyroid peroxidase (TPO) binding; conditions: low-risk exposure scenario
Text: In vitro pharmacological profiling is used to measure specific and high affinity non-covalent binding interactions between chemicals of interest and various targets with known safety liabilities. These targets include G protein coupled receptors (GPCRs), nuclear hormone receptors (NHRs), ion channels and enzymes. For this evaluation we included 72 targets of interest a full list of which is available in Supplementary Data Sheet 5, across a range of radioligand binding, enzymatic and protein-protein interaction assays run in binding mode only.
The process for deriving a PoD for each of the 72 targets consisted of a two-step method that has been widely adopted when conducting in vitro pharmacological profiling experiments ([Brennan et al., 2024]). […] Targets showing an inhibition or stimulation greater than 50% of a maximal response produced by a reference compound are followed up in a second phase which includes an eight-point concentration response (in two replicates). […] EC50 values (concentration producing a half-maximal response) and IC50 values (concentration causing a half-maximal inhibition of the control agonist response) were determined by the Bayesian probabilistic model of the concentration-response curves and the Hill equation as per ([Labelle et al., 2019]). […] Calculated IC50s were taken forwards as the IPP PoDs ([Middleton et al., 2022]). […]

[7] = hepatic intrinsic clearance, CLint (PBK parameter); format: in vitro ADME
[8] = cited from earlier work; remark: listed apart in the source
[9] = human
[10] = test system: rats; conditions: ref Supplementary Data Sheet 1, cited from earlier work
[11] = Human in vivo PK data: concentration-dose ratio (CDR) and toxicokinetic variability factor (TKVF); parameters: 95% percentile (Conc-dose-ratio): unit not given here;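 further: Literature-pooled human in vivo PK data, plasma, serum or cord blood concentrations per daily dose, weighted by study population size across non-pregnant, pregnant and fetal groups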
[12] = test system: rabbits; parameters: method as in Supplementary Data Sheet 1; conditions: ref Supplementary Data Sheet 1, cited from earlier work
[13] = test system: mice; parameters: method as in Supplementary Data Sheet 1; conditions: ref Supplementary Data Sheet 1, cited from earlier work
[14] = test system: human induced pluripotent stem cell (hiPSC); experiment: devTOX quickPredict (ornithine/cystine ratio, cell viability); format: cell-based; conditions: Figure 8B
Procedure: devTOX quickPredict is a human induced pluripotent stem cell (hiPSC) -based assay that predicts the concentration at which a compound may elicit developmental toxicity. […] Assays were performed as described in [Palmer et al. (2013)] with modifications. Briefly undifferentiated hiPSCs are exposed to the compound for 48 h, with media and test article replacement every 24 h. Ornithine and […] concentrations were measured from the final 24-h treatment using Ultra-Performance Liquid Chromatography-High Resolution Mass Spectrometry (UPLC-HRMS). Cell viability was assessed after sample collection using the CellTiter-Fluor Cell Viability Assay (Promega). Dose-response analysis for the o/c ratio, cell viability, ornithine response and cystine response were performed with GraphPad Prism (version 9.1 or newer, GraphPad Software). Each data set was fit with a nonlinear model. The standard model used for analysis is a four-parameter log-logistic nonlinear model. However, the Akaike information criterion (GraphPad Prism) was used to determine if an asymmetric (five-parameter) or multiphasic nonlinear model was a better fit for the data than the four-parameter model. The developmental toxicity potential (dTP, o/c ratio) and toxicity potential (TP, cell viability) concentrations were predicted from the respective dose-response curves using the hiPSCs cell developmental toxicity threshold (dTT, 0.85).

[15] = test system: human induced pluripotent stem cells (hiPSCs); experiment: ReproTracker (cardiomyocyte, hepatocyte-like and neuronal differentiation); format: cell-based; conditions: Figure 8B
Text: The ReproTracker assay assesses chemical perturbation of early embryonic development by evaluating key events of cardiomyocyte, hepatocyte-like (HLC) and neuronal cell differentiation using human induced pluripotent stem cells (hiPSCs). The ReproTracker protocol is described in ([Jamalpoor et al., 2022]; [Moreau et al., 2023]) and was followed introducing a few modifications to allow for concentration response analysis. […] Lineage specific differentiation was then investigated by assessment of gene expression patterns of cell-specific biomarkers, induced cytotoxicity (AlamarBlue cell viability assay) and by morphological profiling. Gene biomarkers quantified by multiplex qRT-PCR included BMP4 and MYH6 for cardiomyocytes, FOXA2 and AFP for hepatocyte-like cells, PAX6 and NESTIN for neural rosette lineage. […] Saccharin was used as a negative control substance for all 3 lineages. For dose dependent qRT-PCR analysis quality control filtered Ct values were normalised using an adaptation of the Pfaffl ([Pfaffl, 2001]) method to calculate ΔCt values with respect to biomarker and housekeeping gene amplification efficiencies. […] In addition, Alamar blue read outs were taken from the differentiating cells at day 7 and the end of each differentiation to measure cell viability in a dose dependent way. The AlamarBlue readout was normalised and transformed using a Bayesian hierarchical approach The Bayesian model assumes measurement between rows on the treatment plates are correlated but allows for differences in average sample response between rows. […] The final cell viability PODs were those at time point end (day 14 for cardiomyocytes, day 21 for HCLs and day 13 for neural) and had CDS above or equal to 0.5. Both the gene biomarker PODs and cell viability/cytotoxicity PODs for each tested lineage are considered for BER calculation.

[16] = evidence of developmental or reproductive toxicity in animal or human, irrespective of exposure/dose, ref Supplementary Data Sheet 1
[17] = Fetus population, TKVF95 = p95 / weighted mean concentration-dose ratio
[18] = Non-Pregnant population, TKVF95 = p95 / weighted mean concentration-dose ratio
[19] = Pregnant population, TKVF95 = p95 / weighted mean concentration-dose ratio
[20] = Non-Pregnant, combined (oral, IV)

Cc1c(O)cccc1O [2-Methylresorcinol]
Aqueous Solubility ([1]; Solubility pH 4.91, ref [7]): 263 mg/mL
DART Hazard Call [2, 16]: Non Toxic
MoS ([3]; existent consumer risk assessment for the cosmetic use scenario, ref SCCS / SCCP / SCCNFP): Used safely in cosmetic products. Existent consumer risk assessment from the SCCS. MoS >4000.
Renal Clearance [4]: 4.792 L/h
Exposure risk (DART risk classification) ([5]; Cosmetic, […] in hair colourant, dermal): Low Risk
BER from thyroid peroxidase (TPO) binding [6]: < 1

COC(=O)[C@H](Cc1ccccc1)NC(=O)[C@@H](N)CC(=O)O [Aspartame] (H-Asp-Phe-OMe)
Intrinsic Liver Clearance ([7]; scaled from [6]): 400.2 L/h
Aqueous Solubility ([1]; Solubility pH 2.2, ref [4]): 20 mg/mL
Fup ([8]; ref [6]): 83.8%
ADI ([3]; ref FSCJ, EFSA, SCF, JMPR as named in the cell): ADI set by EFSA (40 mg/kg/day)
Renal Clearance [4]: 6.049 L/h
Exposure risk (DART risk classification) ([5]; Dietary, 2,400 mg/daily, oral): Low Risk

CCOC(=O)c1ccccc1C(=O)OCC [Diethyl phthalate]
Renal Clearance [9]: 1.371 L/h
Intrinsic Liver Clearance [7]: 596.6 L/h
Fup ([8]; ref [19]): 19%

CN(C)C(=N)N=C(N)N [Metformin]
highest dose not teratogenic ([10]; rats): 600 mg/kg/day
DART Hazard Call [2, 16]: Non Toxic
Exposure risk (DART risk classification) ([5]; Pharmaceutical, 2,000 mg/daily, oral): Low Risk
CDR fold difference to non-pregnant ([11]; female, human, in vivo): 0.73
CDR fold difference to pregnant ([11]; female, human, in vivo): 1.00
TKVF ([11]; female, human, in vivo): 2.75
95% percentile (Conc-dose-ratio) ([11]; female, human, in vivo, po): 0.0213
Fold Difference to non-pregnant ([11]; female, human, in vivo, po): 0.73
Fold Difference to pregnant ([11]; female, human, in vivo, po): 1.00
Mean Conc-dose -ratio ([11]; female, human, in vivo, po): 0.008 uM/(mg/day]
TKVF ([11]; female, human, in vivo, po): 2.75
CDR fold difference to pregnant ([11]; human, in vivo): 0.56
Fold Difference to pregnant ([11]; human, in vivo, po): 0.56
highest dose not teratogenic ([12]; rabbits): 600 mg/kg/day

CCN(CC)CCNC(=O)c1cc(Cl)c(N)cc1OC [Metoclopramide]
exposure without adverse developmental effects, multiple of maximum recommended human dose ([10]; oral, pregnant rats): ~6 times
DART Hazard Call [2]: Toxic
TKVF [11, 17]: 1.97
TKVF ([11]; Foetus, IV): 1.97
TKVF [11, 18]: 2.85
TKVF ([11]; Non-Pregnant, combined (oral+IV)): 2.85
TKVF [11, 19]: 2.71
TKVF ([11]; Pregnant, IV): 2.71
exposure without adverse developmental effects, multiple of maximum recommended human dose ([12]; oral, pregnant rabbits): ~12 times

O=C1CN(/N=C/c2ccc([N+](=O)[O-])o2)C(=O)N1 [Nitrofurantoin]
DART Hazard Call [2, 16]: Uncertain
Exposure risk (DART risk classification) ([5]; Pharmaceutical, 200 mg/daily, oral): High Risk
CDR fold difference to non-pregnant ([11]; female, human, in vivo): 1.29
CDR fold difference to pregnant ([11]; female, human, in vivo): 1.00
TKVF ([11]; female, human, in vivo): 5.73
CDR fold difference to pregnant ([11]; human, in vivo): 1.74
95% percentile (Conc-dose-ratio) ([11]; human, in vivo, po): 0.11
Fold Difference to non-pregnant ([11]; human, in vivo, po): 1.00
Mean Conc-dose -ratio ([11]; human, in vivo, po): 0.033 uM/(mg/day]
TKVF ([11]; human, in vivo, po): 3.36
multiple of human dose with growth retardation and low incidence of minor and common malformations ([13]; based on mg/kg administered to the dam): 68 times
multiple of human dose at which fetal malformations were not observed [13]: 25 times

CN(CCOc1ccc(CC2SC(=O)NC2=O)cc1)c1ccccn1 (centres unmarked) [Rosiglitazone]
no-effect dose for effects on the placenta, embryo/fetus and offspring ([10]; rats): 0.2 mg/kg/day
TKVF ([11]; female, human, in vivo): 1.71
TKVF ([11]; female, human, in vivo, po): 1.71
TKVF ([11]; human, in vivo): 4.34
TKVF ([11]; human, in vivo, po): 4.34
no-effect dose for effects on the placenta, embryo/fetus and offspring ([12]; rabbits): 15 mg/kg/day

CCCC(CCC)C(=O)O [Valproic acid (VPA), Valproic acid]
DART Hazard Call [2, 16]: Toxic
Exposure risk (DART risk classification) ([5]; Pharmaceutical, 600 mg/daily, oral): High Risk
Exposure risk (DART risk classification) ([5]; Pharmaceutical, 3,600 mg/daily, oral): High Risk
CDR fold difference to non-pregnant ([11]; Fetus population): 0.78
CDR fold difference to pregnant ([11]; Fetus population): 1.13
TKVF [11, 17]: 1.52
95% percentile (Conc-dose-ratio) ([11]; Foetus, combined (oral, IV)): 0.52
Fold Difference to non-pregnant ([11]; Foetus, combined (oral, IV)): 0.78
Fold Difference to pregnant ([11]; Foetus, combined (oral, IV)): 1.13
Mean Conc-dose -ratio ([11]; Foetus, combined (oral, IV)): 0.34 uM/(mg/day]
TKVF ([11]; Foetus, combined (oral, IV)): 1.52
CDR fold difference to non-pregnant ([11]; Non-Pregnant population (reference)): 1.00
TKVF [11, 18]: 1.62
95% percentile (Conc-dose-ratio) [11, 20]: 0.71
Fold Difference to non-pregnant [11, 20]: 1.00
Mean Conc-dose -ratio [11, 20]: 0.44 uM/(mg/day]
TKVF [11, 20]: 1.62
CDR fold difference to non-pregnant ([11]; Pregnant population): 0.69
CDR fold difference to pregnant ([11]; Pregnant population (reference)): 1.00
TKVF [11, 19]: 1.85
95% percentile (Conc-dose-ratio) ([11]; Pregnant, combined (oral, IV)): 0.56
Fold Difference to non-pregnant ([11]; Pregnant, combined (oral, IV)): 0.69
Fold Difference to pregnant ([11]; Pregnant, combined (oral, IV)): 1.00
Mean Conc-dose -ratio ([11]; Pregnant, combined (oral, IV)): 0.30 uM/(mg/day]
TKVF ([11]; Pregnant, combined (oral, IV)): 1.85
BER from devTOX quickPredict [14]: < 1
BER from ReproTracker [15]: < 1
